In patent publication US20240182382A1, “ALIPHATIC 18F-RADIOLABELING OF A TETRAZINE PRECURSOR” (UNIVERSITY OF COPENHAGEN, priority 2021, published 2024):

Legend:
[1] = tested on: CC49-TCO; experiment: Ex vivo blocking assay: blocking of [111In]Tz-Tg binding to CC49-TCO in LS174T tumor xenografts; parameters: species or system nude BALB/c mice; conditions: for Normalized Tumor blocking effect: change in tumor uptake of [111In]Tz-Tg 22 h p.i., Tz administered 1 h prior, normalized to non-blocked control, mean from n = 3 mice/group
Procedure: FIG. 3 show a schematic display of the blocking assay. The blocking effect of non-radiolabeled Tz was determined as the change in tumor uptake of [111 1n]Tz-Tg 22 h p.i. Each Tz was administered 1 h prior to [111 1n]Tz-Tg and the uptake normalized to a group of animals were no blocking was performed (control).
The inventors have recently developed a blocking assay that allows to assess the in vivo ligation performance of unlabeled tetrazine derivatives. This assay omits time-consuming development of radiolabeled tetrazines for every ligand to be tested. In this assay, binding of [^111In]Tz-Tg (see structure in example 7), a literature described pretargeted imaging agent, is blocked in vivo to the pretargeting vector CC49-TCO (described in Stéen, J.; Jørgensen, J. T.; Christoph, D.; Battisti, U. M.; Nørregaard, K.; Edem, P.; Bratteby, K.; Shalgunov, V.; Martin, W.; Svatunek, D.; Poulie, C. B. M.; Hvass, L.; Simon, M.; Thomas, W.; Rossin, R.; Robillard, M.; Kristensen, J. L.; Mikula, H.; Kjaer, A.; Herth, M. Lipophilicity and Click Reactivity Determine the Performance of Bioorthogonal Tetrazine Tools in Pretargeted in Vivo Chemistry; 2020 Dec. 24, 2020.), which was administered 72 h prior. The blocking effect of the unlabeled tetrazine derivatives is afterwards quantified via an ex vivo biodistribution study and normalized to the binding of [^111In]Tz-Tg determined without any blocking.
All animal studies were approved by the Danish Animal Welfare Council, ministry of Justice. Five weeks old female nude BALB/c mice (Charles River, Sulzfeld, Germany) were allowed to acclimatize for one week with access to water and chow ad libitum. Human colon cancer cell line (LS174T; obtained from ATCC) was cultured in minimum essential medium (MEM) supplemented with 10% fetal bovine serum, 1% L-glutamine, 1% sodium pyruvate, 1% non-essential amino acids, and 1% penicillin-streptomycin at 37° C. and 5% CO2. Cells were harvested by trypsinization at a confluence of 70-90% and subcutaneous tumors were established in the left flank of the 6 weeks old animals by inoculation of 5×10^6 LS174T cells resuspended in sterile PBS (100 μL) and allowed to grow for 7-10 days. Tumors were measured using a caliper and the volume calculated using the formula volume=1/2 (length×width 2).
Tumor-bearing animals were matched in groups based on their tumor volume (tumor volumes of ˜100-300 mm^3, n=3 in each group) and were administered 100 μg/100 μL of CC49-TCO (100 μg/100 μL, ˜7 TCO/mAb) per mouse. After 3 days, animals were injected with non-radioactive Tz (10-20 nmol). After 1 h, they were administered with IniTz-Tg (˜13 MBq/100 μL, 1-2 nmol) via the tail vein. [^111In]Tz-Tg was obtained and radiolabeled as previously described in Borjesson, P. K.; Jauw, Y. W.; de Bree, R.; Roos, J. C.; Castelijns, J. A.; Leemans, C. R.; van Dongen, G. A.; Boellaard, R. Radiation dosimetry of 89 Zr-labeled chimeric monoclonal antibody U36 as used for immuno-PET in head and neck cancer patients. J Nucl Med 2009, 50, 1828-36. The mice were euthanized after 22 h and tumor, blood, heart, lung, liver, spleen, kidney, and muscle were resected. All tissues were weighted, and the radioactivity measured in a gamma counter (Wizard2, Perkin Elmer) and data was corrected for decay, tissue weight and injected amount of radioactivity. FIG. 3 illustrate the workflow of the blocking assay.

[2] = Bench stability by analytical HPLC; format: physicochemical
Procedure: The stability of [^18F]13 and it precursor (28) was investigated by analytical HPLC. [^18F]13 was stable for at least 4 hours and therefore, sufficient for most applications (FIG. 5A). […] The process could be prevented storing the precursor (28) at −20° C. as a solid—at least for 3 months (FIG. 5B).

[3] = tested on: CC49-TCO; experiment: Pretargeted PET/CT imaging in LS174T tumor xenograft bearing mice; format: in vivo, Balb/c nude mice; conditions: for tumor-to-blood (T/B) ratio: 1 h; for tumor uptake: mice pretreated with CC49-TCO 72 h prior; for tumor-to-muscle ratio in comparison: compared to [64Cu]Cu-NOTA-PEG7-H-Tz, [111In]Tz-Tg and ZZ; for tumor-to-muscle (T/M) ratio: image derived, 1 h p.i., animals pretargeted with CC49-TCO; for pharmacokinetics: pretargeted experiments in mice
Procedure: The ability of [^18F]13 and [^18F]14 to be used as a pretargeting imaging agents was evaluated using a similar pretargeted setup that was used for the ex vivo blocking study in example 7. Mice were administered with CC49-TCO 72 h prior to administration of [^18F]13 or [^18F]14 where after PET/CT scanning was performed 1 h later. Control animals were injected with unconjugated mAb CC49 instead of CC49-TCO, but were otherwise treated exactly the same. After PET/CT scanning, animals were euthanized and an ex vivo biodistribution performed.
A) Pretargeted imaging of [^18F]13: Pretargeted imaging of [^18F]13 as tested in vivo using the TAG-72 targeting antibody CC49 in human colorectal cancer xenograft tumors LS174T. Tumors were established in 7-8 week old Balb/c nude mice and after one week, the animals were injected i.v. with either 50 ug […] TCO-modified CC49 (CC49-TCO, ˜7 TCO/mAb), or non-modified CC49 (control) (n=4 per group). 72 hours later, ^18F-13 (1.74±0.319 (mean±SD) MBq/100 μL (55.3 GBq/μmol) were injected i.v., followed by PET/CT-scan (Inveon®, Siemens Medical Solutions), one hour post injection. PET data was acquired in an energy window of 350-650 KeV and a time resolution of 6 ns followed by a CT scan (360 projections, 65 kV, 500 pA and 400 ms). PET and CT images were aligned by rigid affine registration, after which 3D regions of interest (ROI) were created on the full CT tumor volume, as well as heart and muscle tissue to quantify uptake of [^18F]13 (FIG. 6). Additionally, selected organs were harvested for ex vivo biodistribution. The radioactivity in the tissues were determined using a gamma counter (Wizard 2 , Perkin Elmer). Data was corrected for decay, tissue weight and the injected dose of radioactivity. GraphPad Prism 9 (GraphPad Software) was used for statistical analyses and plotting data. Statistical difference between mean % ID/g values were analyzed using Welch's T-test. Results were considered significant when p<0.05.
B) Pretargeted imaging of [^18]14: LS174T xenografts were established in mice as previously described. When tumors reached a size of ˜100 mm3 animals were matched based on their tumor volume and divided into two groups (tumor volumes of, n=5/group), and injected iv with 50 μg in 100 μL of either CC49-TCO or CC49. After 72 h the animals were administered iv with [^18F ]14(4.74±1.39 MBq in 100 μL) and PET/CT (Inveon, Siemens Medical Solutions, USA) scanned 1 h later, using a PET acquisition time of 5 min, an energy window of 350-650 KeV and a time resolution of 6 ns;
followed by a continuous 360 projections/360° CT scan, acquired with a x-ray tube voltage of 65 kV, a tube anode current of 500 pA and an exposure time per projection of 400 ms (FIG. 8). Mice were anaesthetized breathing 3% sevoflurane (5% for induction) mixed in 35% O2 in N2 and during scans the body temperature of the mice was kept stable using a heating pad.
Signograms from PET scans were reconstructed using a 3-dimensional maximum a posteriori algorithm with correction for scatter and attenuation. The mean percentage of injected dose per grams (% ID/g) was determined by manually creating regions of interest (ROI) on co-registered PET/CT images (Inveon Research Workplace software, Siemens Medical Solutions, USA).

[4] = Tetrazine core reactivity test with TCO-PNP; format: physicochemical; conditions: for tetrazine core after radiolabeling: analytical chromatogram before and after TCO-PNP addition
Procedure: • a) The reaction between [^18F]13 TCO-PNP was performed by mixing the formulated [^18F]13 (200 μL) with 5 μL of the commercially available TCO-PNP ester dissolved in DMF (5 mg/mL) in an analytical HPLC vial. The solution was gently shaken and left for 1 min before it was injected on the analytical HPLC for analysis. • b) The reaction between [^18F]14 and TCO-PNB was performed by mixing the formulated [^18F]14 (200 μL) with 5 μL of the commercially available TCO-PNB ester dissolved in DMF (5 mg/mL) in an analytical HPLC vial. The solution was gently shaken and left for 1 min before it was injected on the analytical HPLC for analysis.

O=C(O)C(F)(F)F.O=C(O)CN(CCF)Cc1cc(F)cc(-c2nncnn2)c1 [Compound 9, N-(carboxymethyl)-2-fluoro-N-(3-fluoro-5-(1,2,4,5-tetrazin-3-yl)benzyl)ethanaminium 2,2,2-trifluoroacetate]
Normalized Tumor blocking effect [1]: 76

O=C(O)C(F)(F)F.O=C(O)CN(CCF)Cc1cccc(-c2nncnn2)c1 [Compound 10, N-(3-(1,2,4,5-tetrazin-3-yl)benzyl)-N-(carboxymethyl)-2-fluoroethanaminium 2,2,2-trifluoroacetate]
Normalized Tumor blocking effect [1]: 75

O=C(O)C(F)(F)F.O=C(O)CN(CCF)Cc1ccc(-c2nncnn2)cc1F [Compound 11, N-(carboxymethyl)-2-fluoro-N-(2-fluoro-4-(1,2,4,5-tetrazin-3-yl)benzyl)ethanaminium 2,2,2-trifluoroacetate]
Normalized Tumor blocking effect [1]: 69

O=C(O)C(F)(F)F.O=C(O)CN(CCF)Cc1ccc(-c2nncnn2)cc1 [Compound 12, N-(4-(1,2,4,5-tetrazin-3-yl)benzyl)-N-(carboxymethyl)-2-fluoroethanaminium 2,2,2-trifluoroacetate]
Normalized Tumor blocking effect [1]: 69

O=C(O)C(F)(F)F.O=C(O)CN(CC(=O)O)Cc1ccc(-c2nncnn2)cc1OCCF [Compound 13, 1-Carboxy-N-(carboxymethyl)-N-(2-(2-fluoroethoxy)-4-(1,2,4,5-tetrazin-3-yl)benzyl) methanaminium 2,2,2-trifluoroacetate]
Normalized Tumor blocking effect [1]: 98

O=C(O)C(F)(F)F.O=C(O)CN(CC(=O)O)Cc1ccc(-c2nnc(-c3ccc(OCCF)cn3)nn2)nc1 [Compound 14, 1-Carboxy-N-(carboxymethyl)-N-((6-(6-(5-(2-fluoroethoxy)pyridin-2-yl)-1,2,4,5-tetrazin-3-yl)pyridin-3-yl)methyl)methanaminium 2,2,2-trifluoroacetate]
blocking effect ([1]; blocking of [111In]Tz-Tg binding to CC49-TCO in vivo): 99% | Normalized Tumor blocking effect [1]: 99

CC(C)(C)OC(=O)CN(CC(=O)OC(C)(C)C)Cc1ccc(-c2nncnn2)cc1OCCOS(=O)(=O)c1ccc([N+](=O)[O-])cc1 [Compound 28, Di-tert-butyl 2,2′-((2-(2-(((4-nitrophenyl)sulfonyl)oxy)ethoxy)-4-(1,2,4,5-tetrazin-3-yl)benzyl)azanediyl)diacetate]
stability of precursor ([2]; analytical HPLC): decomposed over time | time stable ([2]; dissolved (25 mg/mL) in DMSO and frozen at −20° C.): at least 3 months | time stable ([2]; stored at −20° C. as a solid): ≥ 3 months

O=C(O)CN(CC(=O)O)Cc1ccc(-c2nncnn2)cc1OCC[18F] [[^18F]13]
tumor-to-blood (T/B) ratio [3]: 1.2 | Uptake in tissues beside tumor and blood ([3]; PET/CT 1 h p.i.): low | tumor uptake, control ([3]; PET/CT 1 h p.i., control mice injected with unconjugated CC49 72 h prior, mean±S.E.M): 0.01±0.01 % ID/g | tumor uptake ([3]; PET/CT 1 h p.i., mean±S.E.M): 1.87±0.31 % ID/g | tumor-to-muscle ratio in comparison [3]: highest | tumor-to-muscle (T/M) ratio [3]: 20.1 | pharmacokinetics [3]: favorable | Stability at r.t. over 4 hours ([2]; after 4 hours at r.t.): no signs of decomposition | time stable ([2]; formulated tracer at r.t., analytical HPLC): at least 4 hours | ability to react with TCO-PNP ([4]; after 4 hours at r.t.): quantitatively | tetrazine core after radiolabeling [4]: intact

O=C(O)CN(CC(=O)O)Cc1ccc(-c2nnc(-c3ccc(OCC[18F])cn3)nn2)nc1 [[^18F]14]
tumor-to-blood (T/B) ratio [3]: 0.8 | Uptake in muscle tissue ([3]; PET/CT 1 h p.i.): generally low | uptake in blood (heart used as a surrogate) ([3]; PET/CT 1 h p.i., CC49-TCO group): high | tumor uptake ([3]; PET/CT 1 h p.i., mean±S.E.M): 1.8±0.3 % ID/g | tumor-to-muscle ratio in comparison [3]: highest | tumor-to-muscle (T/M) ratio [3]: 9.0 | pharmacokinetics [3]: favorable | tetrazine core after radiolabeling [4]: intact
